# Assay: Stable form screen of Compound I (suspension in solvents at RT, solids analysed by XRPD)
# Type: physicochemical
# Details: starting from Compound I Form I, suspended in DCM at RT
# Protocol: Compound I Form I was suspended with stirring in capped glass vials at RT. Samples from the suspensions were centrifuged/filtered and the isolated solids and liquids were analyzed. Solids were analyzed by XRPD and liquids were analyzed for solubility by […]. Sampling and analysis were performed after one day and greater than fourteen days.
24 Hour XRPD,Compound,14+ Day XRPD
mixture of Forms II and V,"Cc1cc(F)c(C(=O)Nc2cccc(-c3nncn3C(C)C)n2)cc1-n1cnc(C2CC2)c1 [Compound I Form I, 5-(4-cyclopropyl-1H-imidazol-1-yl)-N-(6-(4-isopropyl-4H-1,2,4-triazol-3-yl)pyridin-2-yl)-2-fluoro-4-methylbenzamide]",mixture of Compound I Form II and Compound I Form V

# Assay: High humidity stress test at 75% RH/RT
# Type: physicochemical
# Details: not given
row,Compound,deliquescence in high humidity stress test
1,"Cc1cc(F)c(C(=O)Nc2cccc(-c3nncn3C(C)C)n2)cc1-n1cnc(C2CC2)c1.O=C(O)/C=C\C(=O)O [Compound I Maleate Form I, 5-(4-cyclopropyl-1H-imidazol-1-yl)-N-(6-(4-isopropyl-4H-1,2,4-triazol-3-yl)pyridin-2-yl)-2-fluoro-4-methylbenzamide maleate]",did not show any evidence of deliquescence
2,"Cc1cc(F)c(C(=O)Nc2cccc(-c3nncn3C(C)C)n2)cc1-n1cnc(C2CC2)c1.Cl [Compound I HCl Form I, 5-(4-cyclopropyl-1H-imidazol-1-yl)-N-(6-(4-isopropyl-4H-1,2,4-triazol-3-yl)pyridin-2-yl)-2-fluoro-4-methylbenzamide hydrochloride]",did not show any evidence of deliquescence
3,"CS(=O)(=O)O.Cc1cc(F)c(C(=O)Nc2cccc(-c3nncn3C(C)C)n2)cc1-n1cnc(C2CC2)c1 [Compound I Mesylate Form I, 5-(4-cyclopropyl-1H-imidazol-1-yl)-N-(6-(4-isopropyl-4H-1,2,4-triazol-3-yl)pyridin-2-yl)-2-fluoro-4-methylbenzamide mesylate]",did not show any evidence of deliquescence
4,"Cc1cc(F)c(C(=O)Nc2cccc(-c3nncn3C(C)C)n2)cc1-n1cnc(C2CC2)c1.O=C(O)CCC(=O)O [Compound I Succinate Form I, 5-(4-cyclopropyl-1H-imidazol-1-yl)-N-(6-(4-isopropyl-4H-1,2,4-triazol-3-yl)pyridin-2-yl)-2-fluoro-4-methylbenzamide succinate]",did not show any evidence of deliquescence
5,"Cc1cc(F)c(C(=O)Nc2cccc(-c3nncn3C(C)C)n2)cc1-n1cnc(C2CC2)c1.O=C(O)/C=C/C(=O)O [Compound I Fumarate Form I, 5-(4-cyclopropyl-1H-imidazol-1-yl)-N-(6-(4-isopropyl-4H-1,2,4-triazol-3-yl)pyridin-2-yl)-2-fluoro-4-methylbenzamide fumarate]",did not show any evidence of deliquescence
6,"Cc1cc(F)c(C(=O)Nc2cccc(-c3nncn3C(C)C)n2)cc1-n1cnc(C2CC2)c1.O=C(O)C(O)C(O)C(=O)O [Compound I L-Tartrate Form I, 5-(4-cyclopropyl-1H-imidazol-1-yl)-N-(6-(4-isopropyl-4H-1,2,4-triazol-3-yl)pyridin-2-yl)-2-fluoro-4-methylbenzamide L-tartrate]",did not show any evidence of deliquescence
7,"5-(4-cyclopropyl-1H-imidazol-1-yl)-N-(6-(4-isopropyl-4H-1,2,4-triazol-3-yl)pyridin-2-yl)-2-fluoro-4-methylbenzamide glutarate [Compound I Glutarate Form I]",did not show any evidence of deliquescence
8,"5-(4-cyclopropyl-1H-imidazol-1-yl)-N-(6-(4-isopropyl-4H-1,2,4-triazol-3-yl)pyridin-2-yl)-2-fluoro-4-methylbenzamide propyl gallate [Compound I Propyl Gallate Form I]",did not show any evidence of deliquescence
9,"Cc1cc(F)c(C(=O)Nc2cccc(-c3nncn3C(C)C)n2)cc1-n1cnc(C2CC2)c1.O=C(O)CO [Compound I Glycolate Form I, 5-(4-cyclopropyl-1H-imidazol-1-yl)-N-(6-(4-isopropyl-4H-1,2,4-triazol-3-yl)pyridin-2-yl)-2-fluoro-4-methylbenzamide glycolate]",did not show any evidence of deliquescence
10,"Cc1cc(F)c(C(=O)Nc2cccc(-c3nncn3C(C)C)n2)cc1-n1cnc(C2CC2)c1.O=S(=O)(O)O [Compound I Sulfate Form I, 5-(4-cyclopropyl-1H-imidazol-1-yl)-N-(6-(4-isopropyl-4H-1,2,4-triazol-3-yl)pyridin-2-yl)-2-fluoro-4-methylbenzamide sulfate]",did not show any evidence of deliquescence
11,"Cc1cc(F)c(C(=O)Nc2cccc(-c3nncn3C(C)C)n2)cc1-n1cnc(C2CC2)c1.O=C(O)C(=O)O [Compound I Oxalate Form I, 5-(4-cyclopropyl-1H-imidazol-1-yl)-N-(6-(4-isopropyl-4H-1,2,4-triazol-3-yl)pyridin-2-yl)-2-fluoro-4-methylbenzamide oxalate]",did not show any evidence of deliquescence
12,"CCS(=O)(=O)O.Cc1cc(F)c(C(=O)Nc2cccc(-c3nncn3C(C)C)n2)cc1-n1cnc(C2CC2)c1 [Compound I Esylate Form I, 5-(4-cyclopropyl-1H-imidazol-1-yl)-N-(6-(4-isopropyl-4H-1,2,4-triazol-3-yl)pyridin-2-yl)-2-fluoro-4-methylbenzamide esylate]",did not show any evidence of deliquescence
13,"5-(4-cyclopropyl-1H-imidazol-1-yl)-N-(6-(4-isopropyl-4H-1,2,4-triazol-3-yl)pyridin-2-yl)-2-fluoro-4-methylbenzamide edisylate [Compound I Edisylate Form I]",did not show any evidence of deliquescence
14,"Cc1cc(F)c(C(=O)Nc2cccc(-c3nncn3C(C)C)n2)cc1-n1cnc(C2CC2)c1.Cc1ccc(S(=O)(=O)O)cc1 [Compound I Tosylate Form I, 5-(4-cyclopropyl-1H-imidazol-1-yl)-N-(6-(4-isopropyl-4H-1,2,4-triazol-3-yl)pyridin-2-yl)-2-fluoro-4-methylbenzamide tosylate]",did not show any evidence of deliquescence
15,"5-(4-cyclopropyl-1H-imidazol-1-yl)-N-(6-(4-isopropyl-4H-1,2,4-triazol-3-yl)pyridin-2-yl)-2-fluoro-4-methylbenzamide gentisate [Compound I Gentisate Form II]",did not show any evidence of deliquescence

# Assay: Form change on heating, drying or exposure to ambient conditions
# Type: physicochemical
# Details: ambient temperature and humidity / storage at ambient conditions
# Text: Form V has only been truly isolated by growth of single crystals.
# Isolated solids were dried with filter paper to remove residual solvents and analyzed by DSC, TGA and KF. […] (FIG. 45).
# The sample was stirred for more than two months before being placed into storage without agitation and at ambient conditions. […] The material was collected by vacuum filtration and dried under ambient conditions. […] (FIG. 48).
row,Compound,form change at ambient conditions
1,"Cc1cc(F)c(C(=O)Nc2cccc(-c3nncn3C(C)C)n2)cc1-n1cnc(C2CC2)c1 [Compound I Form VIII, 5-(4-cyclopropyl-1H-imidazol-1-yl)-N-(6-(4-isopropyl-4H-1,2,4-triazol-3-yl)pyridin-2-yl)-2-fluoro-4-methylbenzamide]",rapidly loses water and converts to Compound I Form VI

# Same assay, conditions: heating to about 110° C.
row,form change after heating,Compound
1,No form change,"Cc1cc(F)c(C(=O)Nc2cccc(-c3nncn3C(C)C)n2)cc1-n1cnc(C2CC2)c1 [Compound I Form II, 5-(4-cyclopropyl-1H-imidazol-1-yl)-N-(6-(4-isopropyl-4H-1,2,4-triazol-3-yl)pyridin-2-yl)-2-fluoro-4-methylbenzamide]"

# Same assay, conditions: heating up to about 180° C.
row,form change after heating,Compound
1,re-crystallizes to Compound I Form VI,"Cc1cc(F)c(C(=O)Nc2cccc(-c3nncn3C(C)C)n2)cc1-n1cnc(C2CC2)c1 [Compound I Form II, 5-(4-cyclopropyl-1H-imidazol-1-yl)-N-(6-(4-isopropyl-4H-1,2,4-triazol-3-yl)pyridin-2-yl)-2-fluoro-4-methylbenzamide]"

# — patent US9907790B2, “Solid forms of an ASK1 inhibitor” (Gilead Sciences, Inc., priority 2014, dated 2018)
